The results in this text go back to ChEMBL document CHEMBL1130977, “5-Aminomethylquinoxaline-2,3-diones. Part II: N-aryl derivatives as novel NMDA/glycine and AMPA antagonists” (Bioorg Med Chem Lett, 1998).

Assay [1] has as its target T1, Glutamate receptor ionotropic, AMPA (Rattus norvegicus) (UniProt P19491+P19492+P19493+P19490). As to the kind of experiment: Tested for in vitro binding affinity against AMPA receptor using [3H]-AMPA binding assay at a concentration of 1 uM. It counts as protein-complex assay.
The next assay addresses Glutamate NMDA receptor. As to the kind of experiment: Inhibition of [3H]MDL-105,519 binding to NMDA receptor glycine-binding site. It counts as protein-complex assay, Rattus norvegicus.
In assay [2] the target is Glutamate receptor ionotropic, AMPA (Rattus norvegicus, UniProt P19490+P19491+P19492+P19493). As to the kind of experiment: Tested for in vitro binding affinity against AMPA receptor using [3H]-AMPA binding assay. It counts as protein-complex assay.
For assay [3], the target named is Glutamate NMDA receptor (Rattus norvegicus) (UniProt P35439+Q00959+Q00960+Q00961+Q62645+Q8VHN2+Q9R1M7). The assay is described as follows: Inhibition of [3H]MDL-105519 binding to NMDA receptor glycine binding site. The following applies: concentration not given here. Details: concentration or dose not given beside the values. It counts as protein-complex assay.

The target of assay [4] is T1, Glutamate receptor ionotropic, AMPA (Rattus norvegicus). The assay is described as follows: Tested for in vitro binding affinity against AMPA receptor using [3H]AMPA binding assay. It counts as protein-complex assay.

For orientation: inhibition means the share of the control response that was lost under treatment. Usually IC50 stands for the concentration that gives 50% inhibition. The compound `CCOC(=O)Cc1csc(NCc2cc(Br)cc3nc(O)c(O)nc23)n1` gave an inhibition in assay [1] of 17%. Besides, the IC50 on Glutamate NMDA receptor amounted to 340 nM.
In assay [2], `O=C(O)[C@@H]1CCCC[C@@H]1NCc1cc([N+](=O)[O-])cc2nc(O)c(O)nc12` displayed a half-maximal inhibitory concentration (IC50) of 670 nM. In assay [3], the inhibition amounted to 25%.
For the compound `O=C(O)Cc1csc(NCc2cc(Br)cc3nc(O)c(O)nc23)n1`, the half-inhibitory concentration (IC50) turned out to be 1450 nM in assay [2] and 120 nM on Glutamate NMDA receptor.
Consider `O=[N+]([O-])c1cc(CNc2ncccn2)c2nc(O)c(O)nc2c1`, for which, in assay [2], the IC50 was found to be 380 nM. Also, in assay [3], the inhibition was 12%.
In turn, `O=[N+]([O-])c1cc(CNCc2ccccn2)c2nc(O)c(O)nc2c1` showed a half-maximal inhibitory concentration (IC50) in assay [2] of 3100 nM. The inhibition in assay [3] worked out at 40%.
For `COC(=O)C1CCCC(NCc2cc([N+](=O)[O-])cc3nc(O)c(O)nc23)C1` (stereo unspecified), in that order: 1300 nM and 30%.
On the same counts, the results for `O=[N+]([O-])c1cc(CNCc2ccncc2)c2nc(O)c(O)nc2c1` are 1400 nM and 36%.
On to `O=C(O)c1ccccc1NCc1cc(Cl)cc2nc(O)c(O)nc12`, for which the IC50 in assay [2] is 2000 nM; at Glutamate NMDA receptor it was 30 nM.
`O=C(O)C1CCCC(NCc2cc([N+](=O)[O-])cc3nc(O)c(O)nc23)C1` (stereo unspecified) yielded a concentration for half-maximal inhibition (IC50) in assay [2] of 780 nM. Besides, the inhibition in assay [3] stood at 21%.
On to `O=[N+]([O-])c1cc(CNc2ccc(F)cc2)c2nc(O)c(O)nc2c1`, for which the IC50 in assay [2] stood at 1200 nM; at Glutamate NMDA receptor it was 750 nM.
With `NC(=O)[C@@H]1CCCC[C@@H]1NCc1cc([N+](=O)[O-])cc2nc(O)c(O)nc12`, the half-maximal inhibitory concentration (IC50) in assay [2] was found to be 650 nM. This compound had an inhibition in assay [3] of 25%.
Consider `O=[N+]([O-])c1cc(CNc2ccccc2)c2nc(O)c(O)nc2c1`, for which the concentration for half-maximal inhibition (IC50) in assay [2] is 1500 nM; on Glutamate NMDA receptor, 1400 nM.
`O=[N+]([O-])c1cc(CNc2nccs2)c2nc(O)c(O)nc2c1` had an IC50 in assay [2] of 190 nM. Further, the inhibition in assay [3] is 41%.
For `O=[N+]([O-])c1cc(CNc2cnccn2)c2nc(O)c(O)nc2c1`, in that order: 220 nM and 59%.
For `O=C(O)c1cccc(NCc2cc([N+](=O)[O-])cc3nc(O)c(O)nc23)c1`, in that order: 900 nM and 0%.
For the compound `O=[N+]([O-])c1cc(CN2CCC(O)C2)c2nc(O)c(O)nc2c1` (stereo unspecified), in assay [4], the Activity is 330 nM.
In the case of `Oc1nc2cc(Br)cc(CNCc3ccccn3)c2nc1O`, the IC50 in assay [2] is 12000 nM. The same compound gave an inhibition in assay [3] of 40%.
For the compound `COC(=O)c1ccccc1NCc1cc(Cl)cc2nc(O)c(O)nc12`, the inhibition came out at 0% in assay [1] and 25% in assay [3].
On to `O=C(O)c1ccc(NCc2cc([N+](=O)[O-])cc3nc(O)c(O)nc23)cc1`, for which the IC50 in assay [2] amounted to 1600 nM. This compound registered an inhibition in assay [3] of 10%.
In assay [2], `O=[N+]([O-])c1cc(CNc2cccnc2)c2nc(O)c(O)nc2c1` yielded an IC50 of 970 nM. Besides, the inhibition in assay [3] turned out to be 12%.
For `O=C(O)c1ccccc1NCc1cc([N+](=O)[O-])cc2nc(O)c(O)nc12`, the IC50 (in assay [2]; at Glutamate NMDA receptor) was 50 nM each time.
Consider `O=[N+]([O-])c1cc(CNc2cccc(F)c2)c2nc(O)c(O)nc2c1`, for which the concentration for half-maximal inhibition (IC50) in assay [2] is 1400 nM; on Glutamate NMDA receptor, 720 nM.
On the same counts, the results for `O=C(O)Cc1csc(NCc2cc([N+](=O)[O-])cc3nc(O)c(O)nc23)n1` are 180 nM and 120 nM.
On to `O=[N+]([O-])c1cc(CNc2ccccn2)c2nc(O)c(O)nc2c1`, for which the concentration for half-maximal inhibition (IC50) in assay [2] was 500 nM. In assay [3], this compound registered an inhibition of 0%.
`CCOC(=O)Cc1csc(NCc2cc([N+](=O)[O-])cc3nc(O)c(O)nc23)n1`: the values for the half-inhibitory concentration (IC50) (in assay [2]; at Glutamate NMDA receptor) were 1800 nM and 410 nM, respectively.
On the same counts, the results for `O=[N+]([O-])c1cc(CNc2ccccc2F)c2nc(O)c(O)nc2c1` are 1400 nM and 500 nM.
